Results on 22 molecules are retold here after patent publication US11390604B2 (Hoffmann-La Roche Inc., priority 2019, dated 2022).

This assay concerns Acinetobacter baumannii ATCC 17961. Put plainly: Antimicrobial susceptibility testing: 90% growth inhibitory concentration (IC90) determination. It counts as cell-based. As to conditions: ATCC17961, Acinetobacter baumannii ATCC 17961, Iso-Sensitest broth, read-out: ATCC 17961 IC90. The procedure, abridged: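 Growth was followed kinetically by OD600 at 20-min intervals for 16 h at 35±2 °C, with ~5×10^5 CFU/ml in Iso-Sensitest broth. Compounds were tested as twofold dilutions (e.g. 50–0.097 μM final). The concentration giving 90% inhibition of log-phase growth was reported.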

Each structure is given as a SMILES string. Counter-ions that a name gives are not always drawn.

Regarding `C[C@H](N)C(=O)N1CCN(C(=O)c2ccc(NC(=O)c3ncc(-c4cn(CC#N)nc4C(F)(F)F)n3C)cc2Cl)CC1` [Example 71, N-[4-[4-[(2S)-2-aminopropanoyl]piperazine-1-carbonyl]-3-chlorophenyl]-5-[1-(cyanomethyl)-3-(trifluoromethyl)pyrazol-4-yl]-1-methylimidazole-2-carboxamide;2,2,2-trifluoroacetic acid], the IC90 – broadly, the concentration at which the effect reaches the 90% level – amounted to 216 nM.

Turning to `Cn1c(-c2cn(CC#N)nc2C(F)(F)F)cnc1C(=O)Nc1ccc(C(=O)N2CCN(C(=O)C3(O)CCCNC3)CC2)c(Cl)c1` (stereo not shown) [Example 72, N-[3-chloro-4-[4-(3-hydroxypiperidine-3-carbonyl)piperazine-1-carbonyl]phenyl]-5-[1-(cyanomethyl)-3-(trifluoromethyl)pyrazol-4-yl]-1-methylimidazole-2-carboxamide;2,2,2-trifluoroacetic acid], the IC90 amounted to 2260 nM.

As for `Cn1c(-c2cn(CC#N)nc2C(F)(F)F)cnc1C(=O)Nc1ccc(C(=O)N2CCN(C(=O)[C@H]3C[C@@H](N)C3)CC2)c(Cl)c1` [Example 73, N-[4-[4-(3-aminocyclobutanecarbonyl)piperazine-1-carbonyl]-3-chlorophenyl]-5-[1-(cyanomethyl)-3-(trifluoromethyl)pyrazol-4-yl]-1-methylimidazole-2-carboxamide;2,2,2-trifluoroacetic acid], the IC90 came to 2550 nM.

In the case of `Cn1c(-c2cn(CCF)nc2C(F)(F)F)cnc1C(=O)Nc1ccc(C(=O)N2CCN(C(=O)[C@H]3C[C@@H](N)C3)CC2)c(Cl)c1` [Example 74, N-[4-[4-(3-aminocyclobutanecarbonyl)piperazine-1-carbonyl]-3-chlorophenyl]-5-[1-(2-fluoroethyl)-3-(trifluoromethyl)pyrazol-4-yl]-1-methylimidazole-2-carboxamide;hydrochloride], the IC90 is 347 nM.

Regarding `Cn1c(-c2cn(Cc3cccnc3)nc2C(F)(F)F)cnc1C(=O)Nc1ccc(C(=O)N2CCN(C(=O)C3(O)CCCNC3)CC2)c(Cl)c1` (stereo not shown) [Example 75, N-[3-chloro-4-[4-(3-hydroxypiperidine-3-carbonyl)piperazine-1-carbonyl]phenyl]-1-methyl-5-[1-(pyridin-3-ylmethyl)-3-(trifluoromethyl)pyrazol-4-yl]imidazole-2-carboxamide;hydrochloride], the IC90 stood at 542 nM.

Turning to `C#CCn1cc(-c2cnc(C(=O)Nc3ccc(C(=O)N4CCN(C(=O)NCCNC)CC4)c(Cl)c3)n2C)c(C(F)(F)F)n1` [Example 76, 4-[2-chloro-4-[[1-methyl-5-[1-prop-2-ynyl-3-(trifluoromethyl)pyrazol-4-yl]imidazole-2-carbonyl]amino]benzoyl]-N-[2-(methylamino)ethyl]piperazine-1-carboxamide], the IC90 was found to be 247 nM.

For `C#CCn1cc(-c2cnc(C(=O)Nc3ccc(C(=O)N4CCN(C(=O)N5CCNCC5)CC4)c(Cl)c3)n2C)c(C(F)(F)F)n1` [Example 77, N-[3-chloro-4-[4-(piperazine-1-carbonyl)piperazine-1-carbonyl]phenyl]-1-methyl-5-[1-prop-2-ynyl-3-(trifluoromethyl)pyrazol-4-yl]imidazole-2-carboxamide], the concentration for an effect of 90% (IC90) was found to be 257 nM.

Take `C#CCn1cc(-c2cnc(C(=O)Nc3ccc(C(=O)N4CCN(C(=O)N[C@H]5C[C@@H](N)C5)CC4)c(Cl)c3)n2C)c(C(F)(F)F)n1` [Example 78, N-(3-aminocyclobutyl)-4-[2-chloro-4-[[1-methyl-5-[1-prop-2-ynyl-3-(trifluoromethyl)pyrazol-4-yl]imidazole-2-carbonyl]amino]benzoyl]piperazine-1-carboxamide]: the concentration for an effect of 90% (IC90) turned out to be 109 nM.

With `C#CCn1cc(-c2cnc(C(=O)Nc3ccc(C(=O)N4CCN(C(=O)N5CC[C@@H](N)C5)CC4)c(Cl)c3)n2C)c(C(F)(F)F)n1` [Example 79, N-[4-[4-[(3R)-3-aminopyrrolidine-1-carbonyl]piperazine-1-carbonyl]-3-chlorophenyl]-1-methyl-5-[1-prop-2-ynyl-3-(trifluoromethyl)pyrazol-4-yl]imidazole-2-carboxamide], the IC90 is 131 nM.

Turning to `C#CCn1cc(-c2cnc(C(=O)Nc3ccc(C(=O)N4CCN(C(=O)N5CC(C)(N)C5)CC4)c(Cl)c3)n2C)c(C(F)(F)F)n1` [Example 81, N-[4-[4-(3-amino-3-methylazetidine-1-carbonyl)piperazine-1-carbonyl]-3-chlorophenyl]-1-methyl-5-[1-prop-2-ynyl-3-(trifluoromethyl)pyrazol-4-yl]imidazole-2-carboxamide], the IC90 worked out at 227 nM.

`C#CCn1cc(-c2cnc(C(=O)Nc3ccc(C(=O)N4CCN(C(=O)N[C@H]5CCC[C@H]5N)CC4)c(Cl)c3)n2C)c(C(F)(F)F)n1` [Example 82, N-[(1S,2R)-2-aminocyclopentyl]-4-[2-chloro-4-[[1-methyl-5-[1-prop-2-ynyl-3-(trifluoromethyl)pyrazol-4-yl]imidazole-2-carbonyl]amino]benzoyl]piperazine-1-carboxamide]: the 90% effect concentration (IC90) came to 160 nM.

For the molecule `C#CCn1cc(-c2cnc(C(=O)Nc3ccc(C(=O)N4CCN(C(=O)N[C@H]5CC[C@H](N)C5)CC4)c(Cl)c3)n2C)c(C(F)(F)F)n1` [Example 83, N-[(1S,3S)-3-aminocyclopentyl]-4-[2-chloro-4-[[1-methyl-5-[1-prop-2-ynyl-3-(trifluoromethyl)pyrazol-4-yl]imidazole-2-carbonyl]amino]benzoyl]piperazine-1-carboxamide], the IC90 is 288 nM.

`C#CCn1cc(-c2cnc(C(=O)Nc3ccc(C(=O)N4CCN(C(=O)N5CCC(N)CC5)CC4)c(Cl)c3)n2C)c(C(F)(F)F)n1` [Example 84, N-[4-[4-(4-aminopiperidine-1-carbonyl)piperazine-1-carbonyl]-3-chlorophenyl]-1-methyl-5-[1-prop-2-ynyl-3-(trifluoromethyl)pyrazol-4-yl]imidazole-2-carboxamide]: the IC90 came out at 191 nM.

`C#CCn1cc(-c2cnc(C(=O)Nc3ccc(C(=O)N4CCN(C(=O)N5CCC[C@H](N)C5)CC4)c(Cl)c3)n2C)c(C(F)(F)F)n1` [Example 85, N-[4-[4-[(3S)-3-aminopiperidine-1-carbonyl]piperazine-1-carbonyl]-3-chlorophenyl]-1-methyl-5-[1-prop-2-ynyl-3-(trifluoromethyl)pyrazol-4-yl]imidazole-2-carboxamide]: the IC90 came to 170 nM.

Regarding `C#CCn1cc(-c2cnc(C(=O)Nc3ccc(C(=O)N4CCN(C(=O)N5CC6CNC6C5)CC4)c(Cl)c3)n2C)c(C(F)(F)F)n1` (stereo not shown) [Example 86, N-[3-chloro-4-[4-(3,6-diazabicyclo[3.2.0]heptane-3-carbonyl)piperazine-1-carbonyl]phenyl]-1-methyl-5-[1-prop-2-ynyl-3-(trifluoromethyl)pyrazol-4-yl]imidazole-2-carboxamide], the concentration for an effect of 90% (IC90) stood at 203 nM.

Take `C#CCn1cc(-c2cnc(C(=O)Nc3ccc(C(=O)N4CCN(C(=O)N[C@H]5[C@@H]6CNC[C@@H]65)CC4)c(Cl)c3)n2C)c(C(F)(F)F)n1` [Example 87, 4-[2-chloro-4-[[1-methyl-5-[1-prop-2-ynyl-3-(trifluoromethyl)pyrazol-4-yl]imidazole-2-carbonyl]amino]benzoyl]-N-[rac-(1R,5S)-3-azabicyclo[3.1.0]hexan-6-yl]piperazine-1-carboxamide]: the concentration for an effect of 90% (IC90) was determined as 216 nM.

`C#CCn1cc(-c2cnc(C(=O)Nc3ccc(C(=O)N4CCN(C(=O)N5C[C@@H]6C[C@H]5CN6)CC4)c(Cl)c3)n2C)c(C(F)(F)F)n1` [Example 88, N-[3-chloro-4-[4-[(1S,4S)-2,5-diazabicyclo[2.2.1]heptane-2-carbonyl]piperazine-1-carbonyl]phenyl]-1-methyl-5-[1-prop-2-ynyl-3-(trifluoromethyl)pyrazol-4-yl]imidazole-2-carboxamide]: the IC90 was found to be 170 nM.

For the molecule `C#CCn1cc(-c2cnc(C(=O)Nc3ccc(C(=O)N4CCN(C(=O)NC5CC6(CNC6)C5)CC4)c(Cl)c3)n2C)c(C(F)(F)F)n1` [Example 89, N-(2-azaspiro[3.3]heptan-6-yl)-4-[2-chloro-4-[[1-methyl-5-[1-prop-2-ynyl-3-(trifluoromethyl)pyrazol-4-yl]imidazole-2-carbonyl]amino]benzoyl]piperazine-1-carboxamide], the 90% effect concentration (IC90) is 235 nM.

For the molecule `C#CCn1cc(-c2cnc(C(=O)Nc3ccc(C(=O)N4CCN(C(=O)N5C[C@@H]6CNC[C@H]6C5)CC4)c(Cl)c3)n2C)c(C(F)(F)F)n1` [Example 90, N-[4-[4-[(3aS,6aS)-2,3,3a,4,6,6a-hexahydro-1H-pyrrolo[3,4-c]pyrrole-5-carbonyl]piperazine-1-carbonyl]-3-chlorophenyl]-1-methyl-5-[1-prop-2-ynyl-3-(trifluoromethyl)pyrazol-4-yl]imidazole-2-carboxamide], the IC90 worked out at 218 nM.

For the molecule `C#CCn1cc(-c2cnc(C(=O)Nc3ccc(C(=O)N4CCN(C(=O)N5CC6(CCN6)C5)CC4)c(Cl)c3)n2C)c(C(F)(F)F)n1` [Example 91, N-[3-chloro-4-[4-(1,6-diazaspiro[3.3]heptane-6-carbonyl)piperazine-1-carbonyl]phenyl]-1-methyl-5-[1-prop-2-ynyl-3-(trifluoromethyl)pyrazol-4-yl]imidazole-2-carboxamide], the IC90 is 170 nM.

As for `C#CCn1cc(-c2cnc(C(=O)Nc3ccc(C(=O)N4CCN(C(=O)[C@H]5[C@@H]6CNC[C@@H]65)CC4)c(Cl)c3)n2C)c(C(F)(F)F)n1` [Example 92, N-[3-chloro-4-[4-[rac-(1R,5S)-3-azabicyclo[3.1.0]hexane-6-carbonyl]piperazine-1-carbonyl]phenyl]-1-methyl-5-[1-prop-2-ynyl-3-(trifluoromethyl)pyrazol-4-yl]imidazole-2-carboxamide;hydrochloride], the IC90 stood at 103 nM.

As for `C#CCn1cc(-c2cnc(C(=O)Nc3ccc(C(=O)N[C@H]4C[C@@H](N)C4)c(Cl)c3)n2C)c(C(F)(F)F)n1` [Example 93, N-[4-[(3-aminocyclobutyl)carbamoyl]-3-chlorophenyl]-1-methyl-5-[1-prop-2-ynyl-3-(trifluoromethyl)pyrazol-4-yl]imidazole-2-carboxamide;hydrochloride], the IC90 was 557 nM.
